Source: US20130310256A1, “HERBICIDAL COMPOSITIONS COMPRISING 4-AMINO-3-CHLORO-5-FLUORO-6-(4-CHLORO-2-FLUORO-3-METHOXYPHENYL) PYRIDINE-2-CARBOXYLIC ACID OR A DERIVATIVE THEREOF AND VLCFA AND LIPID SYNTHESIS INHIBITING HERBICIDES” (DOW AGROSCIENCES LLC, priority 2008, published 2013)
Where “and” joins values, the source holds several entries; their conditions need not be identical. Identical values can stand only once.

Key:
LEFCH = experiment: Example I: postemergence foliar-applied weed control, greenhouse; type: in vivo, Leptochloa chinensis (L.) Nees (Chinese sprangletop); details: for Visual Weed Control (%) - 21 DAA LEFCH Obs / Visual Weed Control (%) - 22 DAA LEFCH Obs / Visual Weed Control (%) - 19 DAA LEFCH Obs: foliar
Procedure, shortened: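 Plants grown in loam/sandy loam–calcareous grit soil (80:20) in greenhouse, 14 hr photoperiod, about 29° C. day/26° C. night, treated postemergence at first to fourth true leaf stage. Foliar spray at 187 L/ha with 1.25% (v/v) crop oil concentrate; Compound A dosed on acid equivalent basis, partners on active ingredient basis.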

FIMMI = experiment: Example II: in-water applied weed control, transplanted paddy rice, greenhouse; type: in vivo, Fimbristylis miliacea (L.) Vahl (globe fringerush); details: for Visual Weed Control FIMMI Obs: 19 DAA
Procedure: Weed seeds or nutlets of the desired test plant species were planted in puddled soil (mud) prepared by mixing a shredded, non-sterilized mineral soil (50.5 percent silt, 25.5 percent clay, and 24 percent sand, with a pH of about 7.6 and an organic matter content of about 2.9 percent) and water at a 1:1 volumetric ratio. The prepared mud was dispensed in 365 mL aliquots into 16-ounce (oz.) non-perforated plastic pots with a surface area of 86.59 square centimeters (cm^2) leaving a headspace of 3 centimeters (cm) in each pot. Mud was allowed to dry overnight prior to planting or transplanting. Rice seeds were planted in Sun Gro MetroMix® 306 planting mixture, which typically has a pH of 6.0 to 6.8 and an organic matter content of about 30 percent, in plastic plug trays. Seedlings at the second or third leaf stage of growth were transplanted into 840 mL of mud contained in 32-oz. non-perforated plastic pots with a surface area of 86.59 cm^2 4 days prior to herbicide application. The paddy was created by filling the headspace of the pots with 2.5 to 3 cm of water. When required to ensure good germination and healthy plants, a fungicide treatment and/or other chemical or physical treatment was applied. The plants were grown for 4-22 days in a greenhouse with an approximate 14 hr photoperiod which was maintained at about 29′C during the day and 26° C. during the night. Nutrients were added as Osmocote® (19:6:12, N:P:K+ minor nutrients) at 2 g per 16-oz. pot and 4 g per 32-oz. pot. Water was added on a regular basis to maintain the paddy flood, and supplemental lighting was provided with overhead metal halide 1000-Watt lamps as necessary. The plants were employed for testing when they reached the first through fourth true leaf stage.
Treatments consisted of the acid or esters of 4-amino-3-chloro-5-fluoro-6-(4-chloro-2-fluoro-3-methoxy-phenyl)pyridine-2-carboxylic acid (compound A) each formulated as an SC (suspension concentrate) and various herbicidal components alone and in combination. Forms of compound A were applied on an acid equivalent basis.
The herbicidal components were applied on an active ingredient basis and included very long chain fatty acid (VLCFA) synthesis-inhibiting and fatty acid/lipid synthesis-inhibiting herbicides acetochlor (technical grade material), acetochlor+dichlormid formulateded as Topnotch®, pretilachlor (technical grade material), butachlor formulated as Butachlor EC, fentrazamide formulated as Fentrazamide EC, thiobencarb formulated as Bolero® 8EC, cafenstrole formulated as Himeadow® WP or Lapost® Flowable, benfuresate formulated as Full Shot®, anilofos (technical grade material), mefenacet (technical grade material), molinate (technical grade material), and thenylchlor (technical grade material).
Treatment requirements for each compound or herbicidal component were calculated based upon the rates being tested, the concentration of active ingredient or acid equivalent in the formulation, an application volume of 2 mL per component per pot, and an application area of 86.59 cm^2 per pot.
For formulated compounds, a measured amount was placed in an individual 100 or 200 mL glass vial and was dissolved in a volume of 1.25% (v/v) Agri-Dex® crop oil concentrate to obtain application solutions.
For technical grade compounds, a weighed amount was placed in an individual 100 to 200 mL glass vial and was dissolved in a volume of acetone to obtain concentrated stock solutions. […] The concentrated stock solutions obtained were diluted with an equivalent volume of an aqueous mixture containing 2.5% (v/v) crop oil concentrate so that the final application solutions contained 1.25% (v/v) crop oil concentrate.
Applications were made by injecting with a pipetter appropriate amounts of the application solutions, individually and sequentially, into the aqueous layer of the paddy. Control plants were treated in the same manner with the solvent blank. […]

## CCS(=O)(=O)Oc1ccc2c(c1)C(C)(C)CO2 [Benfuresate, 2,3-dihydro-3,3-dimethyl-5-benzofuranyl ethanesulfonate]
LEFCH; 75 gai/ha
  Visual Weed Control (%) - 21 DAA LEFCH Obs: 0%
LEFCH; 150 gai/ha
  Visual Weed Control (%) - 21 DAA LEFCH Obs: 10%
LEFCH; 300 gai/ha
  Visual Weed Control (%) - 21 DAA LEFCH Obs: 10%
  Visual Weed Control (%) - 22 DAA LEFCH Obs: 10%

## CCN(CC)C(=O)n1cnc(S(=O)(=O)c2c(C)cc(C)cc2C)n1 [Cafenstrole, N,N-diethyl-3-[(2,4,6-trimethylphenyl)sulfonyl]-1H-1,2,4-triazole-1-carboxamide]
LEFCH; 20 DAA, 26.25 gai/ha Himeadow WP
  Visual Weed Control Obs: 0%
LEFCH; 20 DAA, 52.5 gai/ha Himeadow WP
  Visual Weed Control Obs: 0%
LEFCH; 20 DAA, 105 gai/ha Himeadow WP
  Visual Weed Control Obs: 0%
LEFCH; 21 DAA, 210 gai/ha Lapost Flowable
  Visual Weed Control Obs: 23%

## COc1c(Cl)ccc(-c2nc(C(=O)O)c(Cl)c(N)c2F)c1F [Compound A Acid, 4-amino-3-chloro-6-(4-chloro-2-fluoro-3-methoxyphenyl)-5-fluoropyridine-2-carboxylic acid]
FIMMI; 8.75 gae/ha
  Visual Weed Control (%) - 20 DAA FIMMI Obs: 50%
LEFCH; 10.6 gae/ha
  Visual Weed Control (%) - 22 DAA LEFCH Obs: 10%
LEFCH; 20 DAA, 17.5 gae/ha
  Visual Weed Control Obs: 30% and 50%
LEFCH; 21 DAA, 17.5 gae/ha
  Visual Weed Control Obs: 20%
LEFCH; 21 DAA, 35 gae/ha
  Visual Weed Control Obs: 45%
LEFCH; 21.2 gae/ha
  Visual Weed Control (%) - 22 DAA LEFCH Obs: 10%

## COc1c(Cl)ccc(-c2nc(C(=O)OCc3ccccc3)c(Cl)c(N)c2F)c1F [Compound A Benzyl Ester, benzyl ester of 4-amino-3-chloro-5-fluoro-6-(4-chloro-2-fluoro-3-methoxy-phenyl)pyridine-2-carboxylic acid]
FIMMI; 4.38 gae/ha
  Visual Weed Control (%) - 20 DAA FIMMI Obs: 30%
FIMMI; 8 gae/ha
  Visual Weed Control FIMMI Obs: 0%
FIMMI; 8.75 gae/ha
  Visual Weed Control (%) - 20 DAA FIMMI Obs: 60%
FIMMI; 16 gae/ha
  Visual Weed Control FIMMI Obs: 0%
FIMMI; 32 gae/ha
  Visual Weed Control FIMMI Obs: 85%
LEFCH; 5.3 gae/ha
  Visual Weed Control (%) - 21 DAA LEFCH Obs: 0%
LEFCH; 8 gae/ha
  Visual Weed Control (%) - 21 DAA LEFCH Obs: 20%
  Visual Weed Control (%) - 22 DAA LEFCH Obs: 35%
LEFCH; 10.6 gae/ha
  Visual Weed Control (%) - 21 DAA LEFCH Obs: 20%
LEFCH; 16 gae/ha
  Visual Weed Control (%) - 19 DAA LEFCH Obs: 45%
  Visual Weed Control (%) - 22 DAA LEFCH Obs: 40%
LEFCH; 20 DAA, 17.5 gae/ha
  Visual Weed Control Obs: 50% and 25%
LEFCH; 21.2 gae/ha
  Visual Weed Control (%) - 21 DAA LEFCH Obs: 35%
LEFCH; 32 gae/ha
  Visual Weed Control (%) - 19 DAA LEFCH Obs: 50%

## CCCOCCN(C(=O)CCl)c1c(CC)cccc1CC [Pretilachlor, 2-chloro-N-(2,6-diethylphenyl)-N-(2-propoxyethyl)acetamide]
FIMMI; 75 gai/ha
  Visual Weed Control (%) - 20 DAA FIMMI Obs: 40%
FIMMI; 150 gai/ha
  Visual Weed Control (%) - 20 DAA FIMMI Obs: 45%
